Active and inactive are the calls of the source. The rule behind the calls is not given here.
How the values were obtained:
Trypanosoma cruzi [1] = assay: Antitrypanosomal activity against Trypanosoma cruzi Y strain trypomastigotes transfected in African green monkey Vero cells assessed as inhibition of parasite growth incubated for 24 hrs by Neubauer chamber based analysis; format: functional, organism-based
[2] = Selectivity index, ratio of CC50 for cytotoxicity against mouse RAW264.7 cells to IC50 for antitrypanosomal activity against Trypanosoma cruzi Y strain trypomastigotes transfected in African green monkey Vero cells assessed as inhibition of parasite growth; format: toxicity, cell-based; conditions: read-out: Ratio CC50/IC50
[3] = Selectivity index, ratio of CC50 for cytotoxicity against mouse RAW264.7 cells to IC50 for antitrypanosomal activity against Trypanosoma cruzi Dm28 epimastigotes assessed as inhibition of parasite growth; format: toxicity, cell-based; conditions: read-out: Ratio CC50/IC50
[4] = Selectivity index, ratio of CC50 for cytotoxicity against mouse RAW264.7 cells to IC50 for antitrypanosomal activity against Trypanosoma cruzi Tulahuen amastigotes transfected in L929 cells assessed as inhibition of parasite growth; format: toxicity, cell-based; conditions: read-out: Ratio CC50/IC50
Trypanosoma cruzi [5] = assay: Antitrypanosomal activity against Trypanosoma cruzi Dm28 epimastigotes assessed as inhibition of parasite growth incubated for 96 hrs by Neubauer chamber based analysis; format: functional, organism-based; conditions: Dm28, 96 h
[6] = Cytotoxicity against mouse RAW264.7 cells assessed as inhibition of cell growth incubated for 72 hrs by MTT assay; format: toxicity, cell-based
Trypanosoma cruzi [7] = assay: Antitrypanosomal activity against Trypanosoma cruzi Tulahuen amastigotes transfected in L929 cells assessed as inhibition of parasite growth incubated for 96 hrs by CPRG based spectrophotometric analysis; format: functional, organism-based; conditions: L929, 96 h
Trypanosoma cruzi [8] = assay: Induction of DNA damage in Trypanosoma cruzi Y strain trypomastigotes at 2 times IC50 incubated for 24 hrs by acridine orange staining based flow cytometry; format: functional, organism-based
Trypanosoma cruzi [9] = assay: Induction of DNA damage in Trypanosoma cruzi Y strain trypomastigotes at 1 times IC50 incubated for 24 hrs by acridine orange staining based flow cytometry; format: functional, organism-based
Trypanosoma cruzi [10] = assay: Induction of apoptosis in Trypanosoma cruzi Y strain trypomastigotes assessed as early apoptosis at 2 times IC50 incubated for 24 hrs by Annexin V-FITC/7AAD staining based flow cytometry; format: functional, organism-based
Trypanosoma cruzi [11] = assay: Induction of mitochondrial membrane potential loss in Trypanosoma cruzi Y strain trypomastigotes at 1 times IC50 incubated for 24 hrs by Rhodamine 123 staining based flow cytometry; format: organism-based
Trypanosoma cruzi [12] = assay: Induction of apoptosis in Trypanosoma cruzi Y strain trypomastigotes assessed as necrosis at 1 times IC50 incubated for 24 hrs by Annexin V-FITC/7AAD staining based flow cytometry; format: functional, organism-based
Trypanosoma cruzi [13] = assay: Induction of mitochondrial membrane potential loss in Trypanosoma cruzi Y strain trypomastigotes at 2 times IC50 incubated for 24 hrs by Rhodamine 123 staining based flow cytometry; format: organism-based
Trypanosoma cruzi [14] = assay: Induction of apoptosis in Trypanosoma cruzi Y strain trypomastigotes assessed as late apoptosis at 1 times IC50 incubated for 24 hrs by Annexin V-FITC/7AAD staining based flow cytometry; format: functional, organism-based
Trypanosoma cruzi [15] = assay: Induction of apoptosis in Trypanosoma cruzi Y strain trypomastigotes assessed as early apoptosis at 1 times IC50 incubated for 24 hrs by Annexin V-FITC/7AAD staining based flow cytometry; format: functional, organism-based
Trypanosoma cruzi [16] = assay: Induction of apoptosis in Trypanosoma cruzi Y strain trypomastigotes assessed as fold increase in early apoptosis incubated for 24 hrs by Annexin V-FITC/7AAD staining based flow cytometry; format: functional
Trypanosoma cruzi [17] = assay: Induction of apoptosis in Trypanosoma cruzi Y strain trypomastigotes assessed as necrosis at 9.64 uM incubated for 24 hrs by Annexin V-FITC/7AAD staining based flow cytometry; format: functional, organism-based
Trypanosoma cruzi [18] = assay: Induction of apoptosis in Trypanosoma cruzi Y strain trypomastigotes assessed as late apoptosis at 9.64 uM incubated for 24 hrs by Annexin V-FITC/7AAD staining based flow cytometry; format: functional, organism-based
Trypanosoma cruzi [19] = assay: Induction of apoptosis in Trypanosoma cruzi Y strain trypomastigotes assessed as fold increase in late apoptosis incubated for 24 hrs by Annexin V-FITC/7AAD staining based flow cytometry; format: functional
Trypanosoma cruzi [20] = assay: Induction of apoptosis in Trypanosoma cruzi Y strain trypomastigotes assessed as necrosis at 131.92 uM incubated for 24 hrs by Annexin V-FITC/7AAD staining based flow cytometry; format: functional, organism-based
Trypanosoma cruzi [21] = assay: Induction of apoptosis in Trypanosoma cruzi Y strain trypomastigotes assessed as late apoptosis at 131.92 uM incubated for 24 hrs by Annexin V-FITC/7AAD staining based flow cytometry; format: functional, organism-based
Trypanosoma cruzi [22] = assay: Induction of apoptosis in Trypanosoma cruzi Y strain trypomastigotes assessed as necrosis at 50.9 uM incubated for 24 hrs by Annexin V-FITC/7AAD staining based flow cytometry; format: functional, organism-based
Trypanosoma cruzi [23] = assay: Induction of apoptosis in Trypanosoma cruzi Y strain trypomastigotes assessed as late apoptosis at 50.9 uM incubated for 24 hrs by Annexin V-FITC/7AAD staining based flow cytometry; format: functional, organism-based

SMILES | IC50 (Trypanosoma cruzi [1]) [µM] | IC50 (Trypanosoma cruzi [5]) [µM] | IC50 (Trypanosoma cruzi [7]) [µM] | selectivity ratio [2] | selectivity ratio [3] | selectivity ratio [4] | CC50 at 72 h [6] [µM] | also measured
C/C(=N\Nc1nc(-c2ccc(-c3ccccc3)cc2)cs1)c1ccc(Cl)c(Cl)c1Cl | 2.64 | 8.62 | 12.9 | 23.6 | 7.22 | 4.83 | 62.2 | –
C/C(=N\Nc1nc(-c2ccc(Cl)cc2)cs1)c1ccc(Cl)cc1Cl | 17.9 | 7.55 | 10.6 | 3.07 | 7.3 | 5.21 | 55.1 | –
C/C(=N\Nc1nc(-c2ccc(Cl)cc2Cl)cs1)c1ccc(Cl)c(Cl)c1Cl | 4.08 | 8.33 | 13.6 | 8.89 | 4.35 | 2.67 | 36.3 | –
O=C(Cn1ccnc1[N+](=O)[O-])NCc1ccccc1 [BENZNIDAZOLE] | 41 | 56.9 | 5.64 | 1.07 | 0.77 | 7.83 | 44.2 | –
COc1ccc(-c2csc(N/N=C(\C)c3ccc(Cl)cc3Cl)n2)cc1 | 45.3 | 3.48 | 3.65 | 0.95 | 12.4 | 11.8 | 43.1 | Activity (Trypanosoma cruzi [8]): inactive; Activity (Trypanosoma cruzi [9]): inactive; Activity (Trypanosoma cruzi [10]): Active; Activity (Trypanosoma cruzi [11]): Active; Activity (Trypanosoma cruzi [12]): Active; Activity (Trypanosoma cruzi [13]): Active; Activity (Trypanosoma cruzi [14]): Active; Activity (Trypanosoma cruzi [15]): Active
C/C(=N\Nc1nc(-c2ccc(Cl)c(Cl)c2)cs1)c1ccc(Cl)cc1Cl | 4.82 | 6.41 | 28.3 | 20.2 | 15.2 | 3.44 | 97.3 | Activity (Trypanosoma cruzi [8]): Active; fold change (FC) (Trypanosoma cruzi [16]): 5; Activity (Trypanosoma cruzi [10]): Active; Activity (Trypanosoma cruzi [17]): Active; Activity (Trypanosoma cruzi [11]): inactive; Activity (Trypanosoma cruzi [12]): Active; Activity (Trypanosoma cruzi [18]): Active; Activity (Trypanosoma cruzi [13]): inactive; Activity (Trypanosoma cruzi [14]): Active; Activity (Trypanosoma cruzi [15]): Active; fold change (FC) (Trypanosoma cruzi [19]): 4
COc1ccc(-c2csc(N/N=C(\C)c3ccc(Cl)c(Cl)c3Cl)n2)cc1 | 30.9 | 7.88 | 7.84 | 0.87 | 3.43 | 3.45 | 27.1 | –
C/C(=N\Nc1nc(-c2ccc3ccccc3c2)cs1)c1ccc(Cl)c(Cl)c1Cl | 66 | 10.9 | 25.4 | 1.45 | 8.86 | 3.79 | 96.2 | Activity (Trypanosoma cruzi [8]): inactive; Activity (Trypanosoma cruzi [9]): inactive; Activity (Trypanosoma cruzi [20]): Active; Activity (Trypanosoma cruzi [10]): Active; Activity (Trypanosoma cruzi [11]): inactive; Activity (Trypanosoma cruzi [12]): Active; Activity (Trypanosoma cruzi [21]): Active; Activity (Trypanosoma cruzi [13]): inactive; Activity (Trypanosoma cruzi [14]): Active; Activity (Trypanosoma cruzi [15]): Active
C/C(=N\Nc1nc(-c2ccccc2)cs1)c1ccc(Cl)cc1Cl | 45.9 | 7.42 | 21.3 | 0.93 | 5.76 | 2 | 42.8 | –
C/C(=N\NC1NC(=O)CS1)c1ccc(Cl)cc1Cl (stereo unspecified) | 1.12 | – | – | – | – | – | – | –

The next lines start with results.

IC50 (Trypanosoma cruzi [1]) [µM] | IC50 (Trypanosoma cruzi [5]) [µM] | IC50 (Trypanosoma cruzi [7]) [µM] | SMILES | selectivity ratio [2] | selectivity ratio [3] | selectivity ratio [4] | CC50 at 72 h [6] [µM] | also measured
11.5 | 13.8 | 20.6 | C/C(=N\Nc1nc(-c2ccccc2)cs1)c1ccc(Cl)c(Cl)c1Cl | 2.61 | 2.18 | 1.46 | 30.2 | –
3.27 | 10.6 | 8.71 | C/C(=N\Nc1nc(-c2ccc(Cl)cc2)cs1)c1ccc(Cl)c(Cl)c1Cl | 12.1 | 3.73 | 4.55 | 39.6 | –
21.5 | 19.4 | 27.9 | C/C(=N\Nc1nc(-c2ccc(F)cc2)cs1)c1ccc(Cl)c(Cl)c1Cl | 1.96 | 2.17 | 1.51 | 42.2 | Activity (Trypanosoma cruzi [8]): Active; Activity (Trypanosoma cruzi [9]): Active; Activity (Trypanosoma cruzi [10]): Active; Activity (Trypanosoma cruzi [11]): inactive; Activity (Trypanosoma cruzi [12]): Active; Activity (Trypanosoma cruzi [13]): inactive; Activity (Trypanosoma cruzi [14]): Active; Activity (Trypanosoma cruzi [15]): Active
– | 8.42 | 4.46 | C/C(=N\Nc1nc(-c2cccc([N+](=O)[O-])c2)cs1)c1ccc(Cl)c(Cl)c1Cl | – | 3.47 | 6.55 | 29.2 | –
– | 28.9 | 45.3 | C/C(=N\Nc1nc(-c2ccc([N+](=O)[O-])cc2)cs1)c1ccc(Cl)c(Cl)c1Cl | – | 3.05 | 1.95 | 88.5 | –
10.6 | 20.2 | 14.9 | C/C(=N\Nc1nc(-c2ccc(-c3ccccc3)cc2)cs1)c1ccc(Cl)cc1Cl | 7.58 | 3.96 | 5.38 | 80.1 | –
25.4 | 32.1 | 25.4 | C/C(=N\Nc1nc(-c2ccc(Cl)c(Cl)c2)cs1)c1ccc(Cl)c(Cl)c1Cl | 1.76 | 1.39 | 1.76 | 44.9 | Activity (Trypanosoma cruzi [8]): inactive; Activity (Trypanosoma cruzi [22]): Active; Activity (Trypanosoma cruzi [9]): inactive; Activity (Trypanosoma cruzi [10]): Active; Activity (Trypanosoma cruzi [11]): Active; Activity (Trypanosoma cruzi [12]): Active; Activity (Trypanosoma cruzi [13]): Active; Activity (Trypanosoma cruzi [23]): Active; Activity (Trypanosoma cruzi [14]): Active; Activity (Trypanosoma cruzi [15]): Active
– | 5.25 | 5.96 | C/C(=N\Nc1nc(-c2ccc(Br)cc2)cs1)c1ccc(Cl)c(Cl)c1Cl | – | 5.68 | 5 | 29.9 | –
